Measurements taken from patent US20240246937A1 (MERCK SHARP & DOHME LLC, priority 2021, published 2024).

The compounds below were run against recombinant IL4I1 (Homo sapiens (Human), UniProt Q96RQ9) (assay: IL4I1 Enzymatic Assay (Amplex Red/HRP coupled fluorescence detection of H2O2)). Conditions: 240 min; recombinant IL4I1, four-hour pre-incubation with compound.
Type: biochemical
Procedure: Interleukin 4 inducible protein 1 (IL4I1) is an L-amino oxidase that catalyzes the oxidation of aromatic residues (Phe, Trp and Tyr): L-amino acid+H2O+O2→2-oxo acid+NH3+H2O2. Equal molar of H2O2 and the corresponding alpha-ketoacid are produced when IL4I1 and substrate are added. In this assay, the hydrogen peroxide generated by IL4I1 is then detected through a coupled reaction with Amplex® Red (10-acetyl-3,7-dihydroxyphenoxazine) and horseradish peroxidase (HRP) to produce resorufin product that could be detected in the form of fluorescence signals. The assessment of the inhibitory effect of small molecules (EC50) on IL4I1 is measured by the effectiveness of the compounds to inhibit the production of H2O2.
Using this assay, the potency (EC50) of each compound was determined from a ten-point (1:3 serial dilution) titration curve using the following outlined procedure. To each well of a black flat-bottom Greiner (Cat #781076) 384 well-plate, 25 nL of compound (0.1% DMSO in final assay volume of 25 μL) was dispensed, followed by the addition of 12.5 μL of 1× assay buffer (50 mM Hepes 7.0 and 0.005% Tween20 (Sigma, Cat #P8341; low peroxide grade)) containing 2 nM of recombinant IL4I1 (R&D Systems, Cat #5684-AO-020). Plates were placed in an ambient temperature humidified chamber for a four-hour pre-incubation with compound. Subsequently, each reaction was initiated by the addition of 12.5 μL 1× assay buffer containing 2 mM of each aromatic amino acids (Phe/Tyr/Trp), 0.1 mM Amplex Red and 2 U/mL of HRP. The final reaction in each well of 25 μL consisted of 1 nM of IL4I1, 1 mM of each residues (Phe, Tyr and Trp), 0.05 mM Amplex Red and 1 U/mL of HRP. It should be noted that the concentrations of Amplex Red and HRP used here were in excess such that the conversion of H2O2 to resorufin product occurred instantaneously and was non-rate limiting. Reactions were allowed to proceed for 120 minutes followed by fluorescence readout on a Spectramax with the following set parameters: 544 nm excitation/590 nm emission, 570 nm cutoff (EnVision is an alternative reader). Dose-response curves were generated by plotting percent effect (% product conversion; Y-axis) vs. Log10 compound concentrations (X-axis). EC50 values were calculated using a non-linear regression, four-parameters sigmoidal dose-response model and are shown in Potency Table 1.

recombinant IL4I1, sequence (Q96RQ9 22-567): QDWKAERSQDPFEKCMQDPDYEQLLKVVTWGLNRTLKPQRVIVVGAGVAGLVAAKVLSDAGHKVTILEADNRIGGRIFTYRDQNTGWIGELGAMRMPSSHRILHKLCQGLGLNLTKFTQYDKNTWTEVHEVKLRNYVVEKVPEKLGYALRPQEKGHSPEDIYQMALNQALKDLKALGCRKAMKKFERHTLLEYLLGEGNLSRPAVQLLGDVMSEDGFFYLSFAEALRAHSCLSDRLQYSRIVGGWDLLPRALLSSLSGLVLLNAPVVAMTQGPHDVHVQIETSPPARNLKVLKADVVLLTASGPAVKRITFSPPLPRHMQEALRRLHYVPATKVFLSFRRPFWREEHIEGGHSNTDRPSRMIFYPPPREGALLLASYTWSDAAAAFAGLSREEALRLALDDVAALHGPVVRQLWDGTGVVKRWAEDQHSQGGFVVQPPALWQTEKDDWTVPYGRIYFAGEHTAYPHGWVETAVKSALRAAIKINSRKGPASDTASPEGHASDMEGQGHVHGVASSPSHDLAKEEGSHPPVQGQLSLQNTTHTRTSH

SMILES	EC50 [nM]
O=C1C(=O)N(C23CC(C2)C3)CCN1Cc1ccc(-c2ccccc2F)nn1 [Example 66, 1-(bicyclo[1.1.1]pentan-1-yl)-4-((6-(2-fluorophenyl)pyridazin-3-yl)methyl)piperazine-2,3-dione]	7
O=C1C(=O)N(C2CCC2)CCN1Cc1nnc(-c2ccc(F)cc2)s1 [Example 29, 1-cyclobutyl-4-((5-(4-fluorophenyl)-1,3,4-thiadiazol-2-yl)methyl)piperazine-2,3-dione]	9
O=C1C(=O)N(C2CCCC2)CCN1Cc1ccc(-c2cccnc2)nn1 [Example 37, 1-cyclopentyl-4-((6-(pyridin-3-yl)pyridazin-3-yl)methyl)piperazine-2,3-dione]	18
O=c1c(=O)n(C2CCC2)ccn1Cc1cc(-c2ccccc2)on1 [Example 56, 1-cyclobutyl-4-((5-phenylisoxazol-3-yl)methyl)-1,4-dihydropyrazine-2,3-dione]	1
O=c1c(=O)n(C23CC(F)(C2)C3)ccn1Cc1cn(-c2ccccn2)nn1 [Example 260, 1-(3-fluorobicyclo[1.1.1]pentan-1-yl)-4-((1-(pyridin-2-yl)-1H-1,2,3-triazol-4-yl)methyl)-1,4-dihydropyrazine-2,3-dione]	38
O=C1C(=O)N(C2CCCC2)CCN1Cc1cc(-c2ccc(F)cc2)no1 [Example 162, 1-cyclopentyl-4-((3-(4-fluorophenyl)isoxazol-5-yl)methyl)piperazine-2,3-dione]	4
O=c1c(=O)n(C2(CF)CC2)ccn1Cc1ccc(-n2ccnn2)nc1 [Example 235, 1-((6-(1H-1,2,3-triazol-1-yl)pyridin-3-yl)methyl)-4-(1-(fluoromethyl)cyclopropyl)-1,4-dihydropyrazine-2,3-dione]	18
O=C1C(=O)N([C@H]2C[C@@H](c3ccccc3)C2)CCN1Cc1ccc(-c2ccccc2)nn1 [Example 96B, cis-1-(3-phenylcyclobutyl)-4-((6-phenylpyridazin-3-yl)methyl)piperazine-2,3-dione]	8
O=c1c(=O)n(C23CC(F)(C2)C3)ccn1Cc1ccc(-n2cccn2)nc1 [Example 220, 1-((6-(1H-pyrazol-1-yl)pyridin-3-yl)methyl)-4-(3-fluorobicyclo[1.1.1]pentan-1-yl)-1,4-dihydropyrazine-2,3-dione]	50
O=c1c(=O)n(C2CCC2)ccn1Cc1nnc(-c2ccccc2F)s1 [Example 34, 1-cyclobutyl-4-((5-(2-fluorophenyl)-1,3,4-thiadiazol-2-yl)methyl)-1,4-dihydropyrazine-2,3-dione]	34
O=C1C(=O)N(C2CC3CC3C2)CCN1Cc1nnc(-c2ccc(F)cc2)s1 (stereo not drawn) [Example 40, 1-((cis)-bicyclo[3.1.0]hexan-3-yl)-4-((5-(4-fluorophenyl)-1,3,4-thiadiazol-2-yl)methyl)piperazine-2,3-dione]	4
CC1(N2CCN(Cc3cc(-c4ccc(F)cc4)no3)C(=O)C2=O)CCC1 [Example 188, 1-((3-(4-fluorophenyl)isoxazol-5-yl)methyl)-4-(1-methylcyclobutyl)piperazine-2,3-dione]	10
O=C1C(=O)N(C2CCC2)CCN1Cc1cc(-c2ccccc2F)no1 [Example 149, 1-cyclobutyl-4-((3-(2-fluorophenyl)isoxazol-5-yl)methyl)piperazine-2,3-dione]	3
O=C1C(=O)N(C2CCC2)[C@H]2CCC[C@@H]2N1Cc1ccc(-c2ccccc2)nn1 (single isomer, unassigned) [Example 435A, (S,S or R,R)-1-cyclobutyl-4-((6-phenylpyridazin-3-yl)methyl)hexahydro-1H-cyclopenta[b]pyrazine-2,3-dione]	85
O=C1C(=O)N(C23CC(F)(C2)C3)CCN1Cc1ccc(-c2nccs2)nn1 [Example 234, 1-(3-fluorobicyclo[1.1.1]pentan-1-yl)-4-((6-(thiazol-2-yl)pyridazin-3-yl)methyl)piperazine-2,3-dione]	40
O=c1c(=O)n(C2CCC2)ccn1Cc1cc(-c2ccc(F)cc2)no1 [Example 159, 1-cyclobutyl-4-((3-(4-fluorophenyl)isoxazol-5-yl)methyl)-1,4-dihydropyrazine-2,3-dione]	1
O=C1C(=O)N(C2CCCC2)CCN1Cc1ncc(-c2ccccc2)cn1 [Example 4, 1-cyclopentyl-4-((5-phenylpyrimidin-2-yl)methyl)piperazine-2,3-dione]	19
O=c1c(=O)n(C2CCC2)ccn1Cc1ccc(-c2c(F)cccc2F)nn1 [Example 192, 1-cyclobutyl-4-((6-(2,6-difluorophenyl)pyridazin-3-yl)methyl)-1,4-dihydropyrazine-2,3-dione]	13

More lines, in order of falling EC50, values ahead:

EC50 [nM]	SMILES
90	N#CC1(n2ccn(Cc3ccc(-n4ccnn4)nn3)c(=O)c2=O)CC1 [Example 335, 1-(4-((6-(1H-1,2,3-triazol-1-yl)pyridazin-3-yl)methyl)-2,3-dioxo-3,4-dihydropyrazin-1(2H)-yl)cyclopropane-1-carbonitrile]
47	O=C1C(=O)N(C2CCCC2)CCN1Cc1nnc(N2CC3CC3C2)s1 (stereo not drawn) [Example 313, 1-((5-(3-azabicyclo[3.1.0]hexan-3-yl)-1,3,4-thiadiazol-2-yl)methyl)-4-cyclopentylpiperazine-2,3-dione]
38	O=C1C(=O)N(CC2CC2)CCN1Cc1ncc(-c2ccccc2)cn1 [Example 280, 1-(cyclopropylmethyl)-4-((5-phenylpyrimidin-2-yl)methyl)piperazine-2,3-dione]
29	O=c1c(=O)n(C23CC(F)(C2)C3)ccn1Cc1ccc(-c2cncs2)nn1 [Example 213, 1-(3-fluorobicyclo[1.1.1]pentan-1-yl)-4-((6-(thiazol-5-yl)pyridazin-3-yl)methyl)-1,4-dihydropyrazine-2,3-dione]
28	CC1(n2ccn(Cc3cc(-c4ccccn4)on3)c(=O)c2=O)CC1 [Example 206, 1-(1-methylcyclopropyl)-4-((5-(pyridin-2-yl)isoxazol-3-yl)methyl)-1,4-dihydropyrazine-2,3-dione]
25	O=C1C(=O)N(C2CCC2)CCN1Cc1ncc(-n2nccn2)cc1F [Example 400, 1-cyclobutyl-4-((3-fluoro-5-(2H-1,2,3-triazol-2-yl)pyridin-2-yl)methyl)piperazine-2,3-dione]
19	O=c1c(=O)n(C23CC(F)(C2)C3)ccn1Cc1cc(-c2ccccn2)no1 [Example 203, 1-(3-fluorobicyclo[1.1.1]pentan-1-yl)-4-((3-(pyridin-2-yl)isoxazol-5-yl)methyl)-1,4-dihydropyrazine-2,3-dione]
9	O=c1c(=O)n(C23CC(C2)C3)ccn1Cc1ccc(-n2cccn2)nc1 [Example 384, 1-((6-(1H-pyrazol-1-yl)pyridin-3-yl)methyl)-4-(bicyclo[1.1.1]pentan-1-yl)-1,4-dihydropyrazine-2,3-dione]
8	O=c1c(=O)n(C23CC(C2)C3)ccn1Cc1cnc(-c2ccccc2)nc1 [Example 111, 1-(bicyclo[1.1.1]pentan-1-yl)-4-((2-phenylpyrimidin-5-yl)methyl)-1,4-dihydropyrazine-2,3-dione]
6	O=c1c(=O)n(C2CCC2)ccn1Cc1ccc(-c2ccccc2)nn1 [Example 137, 1-cyclobutyl-4-((6-phenylpyridazin-3-yl)methyl)-1,4-dihydropyrazine-2,3-dione]
5	O=C1C(=O)N(C2CCCC2)CCN1CCc1nnc(-c2ccccc2)s1 [Example 350, 1-cyclopentyl-4-(2-(5-phenyl-1,3,4-thiadiazol-2-yl)ethyl)piperazine-2,3-dione]
5	O=c1c(=O)n(C2CCC2)ccn1Cc1cc(-c2ccccn2)no1 [Example 161, 1-cyclobutyl-4-((3-(pyridin-2-yl)isoxazol-5-yl)methyl)-1,4-dihydropyrazine-2,3-dione]
5	O=C1C(=O)N(C2CCC2)CCN1Cc1cnc(-c2cccc(F)c2)s1 [Example 79, 1-cyclobutyl-4-((2-(3-fluorophenyl)thiazol-5-yl)methyl)piperazine-2,3-dione]
5	O=c1c(=O)n(C2CCC2)ccn1Cc1nnc(-c2ccccc2)s1 [Example 396, 1-cyclobutyl-4-((5-phenyl-1,3,4-thiadiazol-2-yl)methyl)-1,4-dihydropyrazine-2,3-dione]
3	O=C1C(=O)N(C2CCCC2)CCN1Cc1cc(-c2cccc(F)c2)no1 [Example 153, 1-cyclopentyl-4-((3-(3-fluorophenyl)isoxazol-5-yl)methyl)piperazine-2,3-dione]
